Assay results from patent US20090221666A1, “STILBENE DERIVATIVES AND METHODS OF INHIBITING CANCER CELL GROWTH AND MICROBIAL GROWTH” (priority 2005, published 2009).
Values after ≈ are worked out from the molar mass of the structure shown.

Tests used:
[1] = system: human cancer cell lines and murine P388; test: cells; type: cell-based; settings: Mus musculus, P388, read-out: Mean
Experimental: (§1) Cytotoxicity assays were performed by the sulforhodamine B method, in which inhibition of formation of cellular protein is measured (Ref. 42). The mitotic index of MCF-7 breast cancer cells was determined as described previously (Ref. 27), except that cells were incubated in the presence of drug for 16 h prior to addition of the DNA stain.

[2] = system: Bovine brain tubulin (vinca domain); test: Inhibition of [3H]vinblastine binding to tubulin; settings: 5.0 μM tubulin, 5 μM [3H]vinblastine
Experimental: (§2) Bovine brain tubulin was prepared and the tubulin assembly and colchicine binding assays were performed as described previously. In the assembly assay, reaction mixtures contained 1.0 mg/mL (10 μM) tubulin and varying concentrations of potential inhibitors. In the colchicine binding assay reaction mixtures contained 0.1 mg/mL (1.0 μM) tubulin, 5.0 μM [^3H]colchicine, and potential inhibitor as indicated. The vinblastine binding assay was performed as described previously for GTP binding by centrifugal gel filtration, except that a Beckman Allegra 6KR centrifuge equipped with a GH-3.8A swinging bucket rotor was used and the syringe-columns were centrifuged at 2,000 rpm (Ref. 38-41). Reaction mixtures contained 0.5 mg/mL (5.0 μM) tubulin, 5 μM [^3H]vinblastine, potential inhibitor as indicated, 0.5 mM MgCl2, 0.1 M 4-morpholineethanesulfonate (1.0 M stock solution adjusted to pH 6.9 with NaOH, and 4% (v/v) dimethyl sulfoxide. Incubation (30 min) and centrifugal gel filtration were performed at room temperature (20-22° C.).

[3] = system: Bovine brain tubulin (colchicine site); test: Inhibition of [3H]colchicine binding to tubulin; settings: 1.0 μM tubulin, 5.0 μM [3H]colchicine
Experimental: as §2

Bovine brain tubulin = test: Inhibition of tubulin assembly; type: biochemical; settings: 1.0 mg/mL (10 μM) tubulin; read-out: Inhibition of tubulin assembly IC50 (μM) ± SD
Experimental: as §2

[4] = system: Neisseria gonorrhoeae ATCC 49226; test: Broth microdilution assay, Neisseria gonorrhoeae; type: cell-based
Description: (§3) Compounds were screened in broth microdilution assays according to National Committee for Clinical Laboratory Standards (Ref. 43-44). Assays were repeated at least twice on separate days.

[5] = system: P388 lymphocytic leukemia cell line; type: cell-based; settings: murine P388 lymphocytic leukemia cell line
Experimental: as §1

NCI-H460 = test: cells; type: cell-based, human
Experimental: as §1

MCF-7 = test: cells; type: cell-based, human; settings: MCF-7
Experimental: as §1

BXPC-3 = test: cells; type: cell-based, human
Experimental: as §1

DU145 = test: cells; type: cell-based, human; settings: DU145
Experimental: as §1

SF-295 = test: cells; type: cell-based, human
Experimental: as §1

KM20L2 = test: cells; type: cell-based, human; settings: KM20L2
Experimental: as §1

[6] = system: Enterococcus faecalis ATCC 29212; test: Broth microdilution assay, Enterococcus faecalis; type: cell-based
Description: as §3

[7] = Solubility in distilled water; type: physicochemical

SMILES: COc1ccc(/C=C\c2cc(OC)c3c(c2)OCO3)cc1N [Compound 1a, 3,4-Methylenedioxy-5,4^1-Dimethoxy-3^1-Amino-Z-Stilbene, reference compound]
- IC50 [1]: 0.013 µg/mL (≈ 0.0434 µM)

SMILES: COc1ccc(C=Cc2cc(OC)c3c(c2)OCO3)cc1N [Compound 1b]
- Inhibition of vinblastine binding % Inhibition ± SD ([2]; 10 μM inhibitor): 0%
- Inhibition of vinblastine binding % Inhibition ± SD ([2]; 80 μM inhibitor): 0%
- Inhibition of colchicine binding % Inhibition ± SD ([3]; 2 μM inhibitor): 85 ± 3%

SMILES: COc1ccc(C=Cc2cc(OC)c(OC)c(OC)c2)cc1O [Compound 2g, combretastatin A-4]
- Inhibition of vinblastine binding % Inhibition ± SD ([2]; 10 μM inhibitor): 0%
- Inhibition of vinblastine binding % Inhibition ± SD ([2]; 80 μM inhibitor): 0%
- Inhibition of colchicine binding % Inhibition ± SD ([3]; 2 μM inhibitor): 98 ± 0.4%

SMILES: COc1ccc(/C=C\c2cc(OC)c3c(c2)OCO3)cc1NC(=O)[C@@H](N)Cc1ccc(OP(=O)(O)O)cc1 [Compound 3a, 3,4-Methylenedioxy-5,4′-dimethoxy-3′-(O-phosphoryl-N^α-L-Tyr)-amido-Z-stilbene]
- MIC [4]: 0.125 µg/mL (≈ 0.23 µM)
- Leukemia P388 ED50 [5]: >10 µg/mL
- Lung-NSC NCI-H460 GI50 (NCI-H460): >1 µg/mL
- Breast MCF-7 GI50 (MCF-7): >1 µg/mL
- Pancreas BXPC-3 GI50 (BXPC-3): >1 µg/mL
- Prostate DU145 GI50 (DU145): >1 µg/mL
- CNS SF-295 GI50 (SF-295): >1 µg/mL
- Colon KM20L2 GI50 (KM20L2): >1 µg/mL
- MIC [6]: 64 µg/mL (≈ 118 µM)
- Solubility ([7]; 1 mL distilled water at 25° C.): <100 µg/mL
- water solubility (in words) ([7]; water): only sparing water solubility

SMILES: CC[C@H](C)[C@@H]([C@@H](CC(=O)N1CCC[C@H]1[C@H](OC)[C@@H](C)C(=O)N[C@@H](Cc1ccccc1)c1nccs1)OC)N(C)C(=O)[C@@H](NC(=O)[C@H](C(C)C)N(C)C)C(C)C [Compound 4a, Dolastatin 10]
- Inhibition of vinblastine binding % Inhibition ± SD ([2]; 10 μM inhibitor): 96 ± 0.7%
- Inhibition of colchicine binding % Inhibition ± SD ([3]; 2 μM inhibitor): 13 ± 5%

SMILES: CC[C@H](C)[C@@H]([C@@H](CC(=O)N1CCC[C@H]1[C@H](OC)[C@@H](C)C(=O)O)OC)N(C)C(=O)[C@@H](NC(=O)[C@H](C(C)C)N(C)C)C(C)C [Compound 4b, Dov-Val-Dil-Dap]
- Inhibition of vinblastine binding % Inhibition ± SD ([2]; 10 μM inhibitor): 16 ± 6%
- Inhibition of vinblastine binding % Inhibition ± SD ([2]; 80 μM inhibitor): 68 ± 0.4%
- Inhibition of colchicine binding % Inhibition ± SD ([3]; 50 μM inhibitor): 5.2 ± 3%

SMILES: COc1ccc(/C=C\c2cc(OC)c3c(c2)OCO3)cc1NC(=O)[C@H](Cc1ccc(OP(=O)(OCc2ccccc2)OCc2ccccc2)cc1)NP(=O)(OCc1ccccc1)OCc1ccccc1 [Compound 5, 3,4-Methylenedioxy-5,4′-dimethoxy-3′-[O,N^α-di(bis-benzylphosphoryl)-L-Tyr]-amido-Z-stilbene]
- Leukemia P388 ED50 [5]: >10 µg/mL
